Laboratory results from patent publication US20240165112A1, “THERAPY FOR THE TREATMENT OF CANCER” (Bristol-Myers Squibb Company, priority 2022, published 2024).

Tests used:
[1] = test system: COL1A1, PAI-1, TNC, LRRC15 transcripts in A549 lung cancer cells; test: TGF-β-induced transcripts in A549 tumor cells (RT-PCR); format: cell-based, human
Description: Indicated gene transcripts were assessed by RT-PCR relative to GAPDH. Data were normalized to expression after TGF-β-treatment in the presence of only DMSO. Data are presented as mean of 3 biological replicates, and error bars indicate standard deviation. The graphs are representative of at least 2 independent experiments. *P<0.05; ** P<0.01, ***P<0.001; ****P<0.0001 by student's t-test.
Cells were directly lysed in Qiagen™ Buffer RLT Plus with 1% 2-Mercaptoethanol added. Total RNA from tumor samples and cell lines was isolated using Qiagen™ AllPrep® DNA/RNA 96 Kit according to manufacturer's protocol. Isolated RNA was analyzed with NanoDrop™ ONE Spectrophotometer for concentration. The RNA integrity was also analyzed on Agilent TapeStation 4200.
Complimentary deoxyribonucleic acid (cDNA) was prepared by using Invitrogen™ SuperScript™ III First-Strand Synthesis SuperMix for qRT-PCR. Up to 1 μg of RNA was prepared according to manufacturer's protocol, using Applied Biosystems™ Veriti™ 96-well thermal cycler. The reverse transcription (RT) program used for cDNA synthesis: • 1. 25° C., 10 minutes • 2. 50° C., 30 minutes • 3. 85° C., 5 minutes • 4. Add E. Coli RNase H, 37° C., 20 minutes • 5. Hold at 4° C. Quantitative Reverse Transcription Polymerase Chain Reaction (qRT-PCR).
The cDNA was diluted 1:3 fold in nuclease-free water for quantitative polymerase chain reaction (qPCR) setup. Human and mouse TaqMan™ assays for targeted genes were ordered through Applied Biosystems™. TaqMan™ assay selection was based on manufacturer's recommendation. The qRT-PCR was set up using Applied Biosystems™ TaqMan™ Fast Advanced Master Mix according to manufacturer's protocol. The qRT-PCR was run on QuantStudio™ 12 Flex with fast run mode: • 1. 95° C., 20 seconds • 2. 95° C., 1 second • 3. 60° C., 20 seconds • 4. Repeat steps 2-3, 39 times
The qPCR data was analyzed, and all cycle threshold (Ct) values were normalized to glyceraldehyde-3-phosphate dehydrogenase (GAPDH) (ΔCt). Analysis was plotted and presented using GraphPad Prism (GraphPad, Version 8.4.1, San Diego, CA).
The RNA expression was assessed 24 hours after TGF-β treatment.

[2] = test system: CCL2 secretion by primary human macrophages; test: CCL2 secretion in primary human macrophages (ELISA); format: cell-based; settings: normalized to DMSO
Description: FIG. 11 illustrates the effect of Compound 1 Treatment on CCL2 Secretion in Primary Human Macrophages. Primary human monocytes were differentiated into macrophages and treated with varying doses of DMSO or Compound 1. The CCL2 levels were measured in the cell supernatant by ELISA 24 hours after drug treatment. The CCL2 secretion levels were normalized to the equivalent DMSO concentration. Data are plotted as the mean and standard deviation of 3 donors and representative of 2 independent experiments. *P<0.05; ** P<0.01, ***P<0.001; ****P<0.0001 by student's t-test. Abbreviations: CCL2, C—C motif chemokine ligand 2; DMSO, dimethyl sulfoxide; ELISA, enzyme-linked immunosorbent assay.
(§1) Peripheral blood mononuclear cells (PBMCs) were isolated from human blood using aseptic conditions. CD14+ monocytes were enriched from PBMC using Miltenyi Biotech kit (using CD14 microbeads). Fresh CD14+ monocytes were differentiated to macrophages using complete RPMI1640 medium with M-CSF recombinant human protein at the final concentration of 50 ng/mL. At Day 3-4, media containing M-CSF was added on monocytes/macrophages and incubated for 6-7 days in 5% CO2 incubator at 37° C. 10 mL 10 mM EDTA or Detachin was added to the culture dish containing macrophages, and let sit for 20-30 minutes, or until cells dissociate from the dish at room temperature. […]

[3] = test system: primary human macrophages; test: Primary macrophage viability (Cell Titer Glo); format: cell-based; settings: Cell Titer Glo at the end of the experiment; any of the doses tested
Description: FIG. 12 illustrates the effect of Compound 1 on Primary Macrophage Viability. Primary human monocytes were differentiated into macrophages and treated with varying doses of DMSO or Compound 1. Cell viability was assessed by Cell Titer Glo 24 hours after drug treatment. Viability in drug treatment groups was normalized to the equivalent DMSO concentration. Data are plotted as the mean and standard deviation of 3 donors and representative of 2 independent experiments. Abbreviations: DMSO, dimethyl sulfoxide.
as §1, with “temperature. Macrophages were collected and washed in a 50 mL conical tube and centrifuged at 300-400×g for 4-5 minutes at room temperature.” for “temperature.”

[4] = 30 μM Compound 1, 10 ng/mL TGF-β, 24 hours

Q: What does the source list for `C[C@@H]1CC[C@@H](Nc2nc(NC(C)(C)C)ncc2C(N)=O)C[C@H]1O` [Compound 1, 2-(tert-butylamino)-4-((1R,3R,4R)-3-hydroxy-4-methylcyclohexylamino)-pyrimidine-5-carboxamide]?
A: COL1A1 reduced relative to TGF-β stimulation in the presence of DMSO alone [1, 4]: 56%; PAI-1 reduced relative to TGF-β stimulation in the presence of DMSO alone [1, 4]: 64%; TNC reduced relative to TGF-β stimulation in the presence of DMSO alone [1, 4]: 90%; Tenascin C upregulation with TGF-β treatment ([1]; Compound 1 at 30 μM, 15 μM or 5 μM): inhibited by all doses of Compound 1 tested; reduction in CCL2 ([2]; 7.4 μM Compound 1, supernatant): 36%; reduction in CCL2 ([2]; 20 μM Compound 1, supernatant): 43%; Macrophage cell viability relative to DMSO [3]: No change in cell viability
